Experimental data: US20170304286A1 (LAUNX BIOMEDICAL CO., LTD., priority 2014, published 2017)
Several values for one entry are separate records, joined by “and”; a condition that tells them apart may be missing. Identical values can stand only once. Like-named read-outs stand apart in the source and are kept apart here.

How the values were obtained:
[1] = test system: C-33A (Cervical carcinoma); assay: WST-1 cell viability, cervical cancer cell line C-33A; assay type: cell-based; conditions: Homo sapiens, 72 h
Description: (§1) The cell numbers were counted and reseed as 2×10^6 in culture plate/flask. Then, the culture medium were added to a volume of 10 ml, and the cells were cultured for 2-3 days. Then, the cells were suspended for loading into 96-well plates. The number of cells was 3000 and the volume of the culture medium was 100 μl each well.
(§2) Removing the original culture medium from 96-well plate. Then add 100 μl of commercially drug at a concentration of 10 μM per well. After 72 hours, add the diluted WST-1 reagent to the well with 100 μl/well, and the diluted WST-1 reagent was acquired from the dilution of 9:1 medium and WST-1 stock reagent. Finally, the total volume of each well was 200 μl/well. Culture the 96-well plate at 37° C. for 30 to 90 minutes. Detecting and calculate the survival rate of each cancer cells with an ELISA reader at OD450 nm.

[2] = test system: 786-O (Renal adenocarcinoma); assay: WST-1 cell viability, renal cancer cell line 786-O; assay type: cell-based; conditions: Homo sapiens
Description: as §1, §2

[3] = test system: PC-3; assay: WST-1 cell viability, prostate cancer cell line PC-3; assay type: cell-based; conditions: Homo sapiens
Description: as §1, §2

[4] = test system: LNCap; assay: WST-1 cell viability, prostate cancer cell line LNCap; assay type: cell-based; conditions: Homo sapiens, 72 h
Description: as §1, §2

[5] = test system: TOV-21G; assay: WST-1 cell viability, ovarian cancer cell line TOV-21G; assay type: cell-based; conditions: Homo sapiens, TOV21G, 72 h
Description: as §1, §2

[6] = test system: SAS (Tongue squamouscell carcinoma); assay: WST-1 cell viability, tongue cancer cell line SAS; assay type: cell-based; conditions: 72 h
Description: as §1, §2

[7] = WST-1 cell viability, normal kidney cell line HEK293; assay type: cell-based; conditions: human, HEK293 normal kidney cells
Description: as §1, §2

[8] = WST-1 cell viability, normal pulmonary epithelial cell line BEAS-2B; assay type: cell-based; conditions: human, BEAS-2B normal bronchial (pulmonary) epithelial cells
Description: Subculture the different types of cancer cells.

[9] = test system: bladder cancer cells; assay: Summary of cell viability, bladder cancer; assay type: cell-based; conditions: 72 h, read-out: Inhibitory effect
Description: as §2

[10] = test system: prostate cancer cells; assay: Summary of cell viability, prostate cancer; assay type: cell-based; conditions: 72 h, read-out: Inhibitory effect
Description: as §2

[11] = Animal model test of gastric cancer, body weight and survival of mice; assay type: in vivo; conditions: for weight: mice A, B, C
Description: In this invention, the female mice were (BALB/cAnN.Cg-Foxn1^nu/CrlNarl) purchased from National Laboratory Animal Center (Taiwan). The weight of the mice were 21±1 g. These mice were subcutaneously injected with gastric cancer cells (AGS) and then put these mice into different cage sat random. The drug test experiment was divided into three groups, include “control group”, “low dose group (100 mg/kg/day)”, and “high dose group (200 mg/kg/day)”. These mice were then injected test drug intraperitoneally once daily until the tumor size reached 100 mm^3. The tumor sizes and body weight were measured twice a week. The tumor sizes were measured and calculated by formula: (L×W^2)/2. L represents the tumor longest length. W represents the tumor shortest diameter.

[12] = average of 4 tests, read-out: survival rate (inhibition effect), Average

`Fc1ccc([C@@H]2CCNC[C@H]2COc2ccc3c(c2)OCO3)cc1` [Paroxetine] showed a viability at 10 µM [1, 12] of 33.2%, a viability at 10 µM ([1]; run 0524-10 min, read-out: survival rate (inhibition effect)) of 33.2% and a viability at 10 µM ([1]; run 0526-10 min, read-out: survival rate (inhibition effect)) of 32.1%. For the same compound, the viability at 10 µM ([1]; run 0529-10 min, read-out: survival rate (inhibition effect)) was 31.7%, the viability at 10 µM ([1]; run 0531-10 min, read-out: survival rate (inhibition effect)) was 35.8% and the viability at 10 µM ([2]; 786-0, 786-O, 72 h, run 0524-10 min, read-out: survival rate (inhibition effect)) was 35.2%. For the same compound, the viability at 10 µM ([2]; 786-0, 786-O, 72 h, run 0526-10 min, read-out: survival rate (inhibition effect)) was 24%, the viability at 10 µM ([2]; 786-0, 786-O, 72 h, run 0529-10 min, read-out: survival rate (inhibition effect)) was 14.6% and the viability at 10 µM ([2]; 786-0, 786-O, 72 h, run 0531-10 min, read-out: survival rate (inhibition effect)) was 22.3%. The viability at 10 µM ([2]; 786-0, 72 h, 786-O, average of 4 tests, read-out: survival rate (inhibition effect), Average) was 24%, the viability at 10 µM ([2]; 786-0, 72 h, summary, renal cancer, read-out: Inhibitory effect) was 72.5% and the viability at 10 µM ([3]; PC-3, 72 h, PC-3, average of 4 tests, read-out: survival rate (inhibition effect), Average) was 44.1%. For the same compound, the viability at 10 µM ([3]; PC-3, PC-3, 72 h, run PC-3-0524-10 min, read-out: survival rate (inhibition effect)) was 33.5%, the viability at 10 µM ([3]; PC-3, PC-3, 72 h, run PC-3-0526-10 min, read-out: survival rate (inhibition effect)) was 61.6% and the viability at 10 µM ([3]; PC-3, PC-3, 72 h, run PC-3-0529-10 min, read-out: survival rate (inhibition effect)) was 39.3%. For the same compound, the viability at 10 µM ([3]; PC-3, PC-3, 72 h, run PC-3-0531-10 min, read-out: survival rate (inhibition effect)) was 41.8%, the viability at 10 µM [4, 12] was 71.7% and the viability at 10 µM ([4]; run LNCap-1-10 min, read-out: survival rate (inhibition effect)) was 65.9%. For the same compound, the viability at 10 µM ([4]; run LNCap-2-20 min, read-out: survival rate (inhibition effect)) was 61.7%, the viability at 10 µM ([4]; run LNCap-3-20 min, read-out: survival rate (inhibition effect)) was 80.9% and the viability at 10 µM ([4]; run LNCap-4-20 min, read-out: survival rate (inhibition effect)) was 78.3%. For the same compound, the viability at 10 µM [5, 12] was 87.1%, the viability at 10 µM ([5]; run 4-30 min, read-out: survival rate (inhibition effect)) was 86.1% and the viability at 10 µM ([5]; run 7-3-30 min, read-out: survival rate (inhibition effect)) was 93.5%. The viability at 10 µM ([5]; run 7-4-30 min, read-out: survival rate (inhibition effect)) was 79.7%, the viability at 10 µM ([5]; run 7-7-30 min, read-out: survival rate (inhibition effect)) was 89.2% and the viability at 10 µM ([6]; SAS, average of 4 tests, read-out: survival rate (inhibition effect), Average) was 51.5%. For the same compound, the viability at 10 µM ([6]; summary, tongue cancer, read-out: Inhibitory effect) was 51.5%, the viability at 10 µM ([6]; SAS, run 6-26-10 min, read-out: survival rate (inhibition effect)) was 48.2% and the viability at 10 µM ([6]; SAS, run 6-28-10 min, read-out: survival rate (inhibition effect)) was 26.7%. For the same compound, the viability at 10 µM ([6]; SAS, run 6-30-10 min, read-out: survival rate (inhibition effect)) was 58%, the viability at 10 µM ([6]; SAS, run 7-3-10 min, read-out: survival rate (inhibition effect)) was 73.1% and the viability at 72 h, 10 µM ([7]; HEK293, average of 4 tests, read-out: survival rate (inhibition effect), Average) was 71.4%. It also gave a viability at 72 h, 10 µM ([7]; HEK293, run 0602-30 min, read-out: survival rate (inhibition effect)) of 64.9%, a viability at 72 h, 10 µM ([7]; HEK293, run 0605-30 min, read-out: survival rate (inhibition effect)) of 76.8% and a viability at 72 h, 10 µM ([7]; HEK293, run 0607-30 min, read-out: survival rate (inhibition effect)) of 76%. The viability at 72 h, 10 µM ([7]; HEK293, run 0609-30 min, read-out: survival rate (inhibition effect)) was 67.8%, the viability at 72 h, 10 µM ([7]; summary, kidney cell, read-out: Inhibitory effect) was 71.4% and the viability at 72 h, 10 µM ([8]; BEAS-2B, average of 4 tests, read-out: survival rate (inhibition effect), Average) was 98.6%. It also gave a viability at 72 h, 10 µM ([8]; BEAS-2B, run 0512-10 min, read-out: survival rate (inhibition effect)) of 103%, a viability at 72 h, 10 µM ([8]; BEAS-2B, run 0515-10 min, read-out: survival rate (inhibition effect)) of 96.4% and a viability at 72 h, 10 µM ([8]; BEAS-2B, run 0517-10 min, read-out: survival rate (inhibition effect)) of 94.6%. For the same compound, the viability at 72 h, 10 µM ([8]; summary, pulmonary epithelial cell line, read-out: Inhibitory effect) was 98.6%, the viability at 10 µM [9] was 69.1% and the viability at 10 µM [10] was 44.1%. The weight ([11]; 100 mg/kg/day i.p., Fifth measurement) was 22 g and 20 g, the weight ([11]; 100 mg/kg/day i.p., First measurement) was 19 g and 18 g and the weight ([11]; 100 mg/kg/day i.p., Fourth measurement) was 22 g and 20 g. For the same compound, the weight ([11]; 100 mg/kg/day i.p., Second measurement) was 19 g and 21 g and 20 g, the weight ([11]; 100 mg/kg/day i.p., Third measurement) was 20.5 g and 23.5 g and 19 g and the weight ([11]; 200 mg/kg/day i.p., Fifth measurement) was 21 g and 20 g. For the same compound, the weight ([11]; 200 mg/kg/day i.p., First measurement) was 19 g and 18.5 g and 20 g, the weight ([11]; 200 mg/kg/day i.p., Fourth measurement) was 20 g and 21 g and the weight ([11]; 200 mg/kg/day i.p., Second measurement) was 20 g and 23 g. The weight ([11]; 200 mg/kg/day i.p., Third measurement) was 19 g and 18.5 g, the “health status / death of tested mice during the treatment” value ([11]; both high and low doses) was “without death” and the “weight of mice during the experiment” value ([11]; both low dose and high dose, FIG. 2) was “did not show a significant decrease”.
